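Protocol summary: plate cells (96-well), add compound at 5 concentrations, incubate 48 h, interpolate endpoints linearly. Here, GI50 denotes the concentration required for 50% inhibition of growth.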 Activity calls are given as the source filed them. Cut-off read from the data, not from the text of the source: active = GI50 up to about 1.1 µM and inactive = higher.
Key:
Assay in all cases: NCI anticancer screen, dose series, 48 h
[1] = system: A498
[2] = system: ACHN
[3] = system: K562
[4] = system: LOX IMVI
[5] = system: MOLT-4
[6] = system: NCI-H226
[7] = system: NCI-H460
[8] = system: OVCAR-4
[9] = system: OVCAR-5
[10] = system: RPMI-8226
[11] = system: SN12C
[12] = system: SNB-78
[13] = system: U-251
[14] = system: UACC-62
[15] = system: HL-60
[16] = system: Hs-578T
[17] = system: MDA-MB-231
[18] = system: MDA-MB-435
[19] = system: RXF 393
[20] = system: SR

| Structure (SMILES) | GI50 [1] | GI50 [2] | GI50 [3] | GI50 [4] | GI50 [5] | GI50 [6] | GI50 [7] | GI50 [8] | GI50 [9] | GI50 [10] | GI50 [11] | GI50 [12] | GI50 [13] | GI50 [14] | GI50 [15] | GI50 [16] | GI50 [17] | GI50 [18] | GI50 [19] | GI50 [20] |
| --- | --- | --- | --- | --- | --- | --- | --- | --- | --- | --- | --- | --- | --- | --- | --- | --- | --- | --- | --- | --- |
| CC(=O)NN1C(=O)C(Cc2ccccc2)c2ccccc21 (stereo unspecified) | > 100 µM (inactive) | > 100 µM (inactive) | > 100 µM (inactive) | > 100 µM (inactive) | > 100 µM (inactive) | > 100 µM (inactive) | > 100 µM (inactive) | > 100 µM (inactive) | > 100 µM (inactive) | > 100 µM (inactive) | > 100 µM (inactive) | > 100 µM (inactive) | > 100 µM (inactive) | > 100 µM (inactive) |  |  |  |  |  |  |
| N#CC(/C(=N\NC(=O)c1ccncc1)C(=O)Nc1ccc([N+](=O)[O-])cc1[N+](=O)[O-])c1nc(-c2ccc(Br)cc2)cs1 (stereo unspecified) | > 100 µM (inactive) | > 100 µM (inactive) | > 100 µM (inactive) | > 100 µM (inactive) | > 100 µM (inactive) |  | > 100 µM (inactive) | > 100 µM (inactive) | > 100 µM (inactive) | > 100 µM (inactive) |  | > 100 µM (inactive) | > 100 µM (inactive) | > 100 µM (inactive) | > 100 µM (inactive) |  |  |  |  |  |
| CCN(CC)CC/N=c1\c2cc(OC)ccc2[nH]c2c([N+](=O)[O-])ccc(NCCN(CC)CC)c12 | 2.3 µM (inactive) | 2.78 µM (inactive) | 0.306 µM (active) | 0.794 µM (active) | 0.198 µM (active) | 0.955 µM (active) | 0.386 µM (active) | 1.15 µM (inactive) | 1.57 µM (inactive) | 0.451 µM (active) | 0.925 µM (active) |  | 1.24 µM (inactive) | 5.26 µM (inactive) | 0.989 µM (active) | 1.46 µM (inactive) | 0.966 µM (active) | 1.88 µM (inactive) | 1.26 µM (inactive) | 0.16 µM (active) |
| O=C1c2ccccc2C2(O)c3cc4ccccc4cc3OC12O (stereo unspecified) | > 100 µM (inactive) | 97.3 µM (inactive) | 46 µM (inactive) | 68.5 µM (inactive) | 37.7 µM (inactive) | 42.4 µM (inactive) | 76.7 µM (inactive) | 84.7 µM (inactive) | > 100 µM (inactive) | 34 µM (inactive) | 92.5 µM (inactive) | 46.7 µM (inactive) | 54.7 µM (inactive) | 47.2 µM (inactive) |  |  |  |  | 29.2 µM (inactive) |  |
| COC(=O)C(CCC(=O)CCl)N1C(=O)c2ccccc2C1=O (stereo unspecified) | 19.5 µM (inactive) | 13.3 µM (inactive) | 2.38 µM (inactive) | 1.57 µM (inactive) | 2.38 µM (inactive) | 18.7 µM (inactive) | 12.2 µM (inactive) | 14.8 µM (inactive) | 15.9 µM (inactive) | 3.37 µM (inactive) | 10.5 µM (inactive) |  | 14.4 µM (inactive) | 10.8 µM (inactive) | 2.53 µM (inactive) | 12.6 µM (inactive) | 12.6 µM (inactive) | 10.1 µM (inactive) | 2.39 µM (inactive) | 3.39 µM (inactive) |
| CCC1CN2CCc3cc(OC)c(OC)cc3C2CC1CC1c2cc(OC)c(OC)cc2CCN1C(=O)C1CCCN1C(=O)OCc1ccccc1 (stereo unspecified) | 16.3 µM (inactive) | 17.7 µM (inactive) | 16.2 µM (inactive) | 15 µM (inactive) |  | 16.1 µM (inactive) | 15.5 µM (inactive) | 12.2 µM (inactive) | 18.1 µM (inactive) | 15 µM (inactive) | 16.3 µM (inactive) | 16 µM (inactive) | 15 µM (inactive) | 16.1 µM (inactive) | 13.1 µM (inactive) |  |  |  | 10.4 µM (inactive) |  |
| O=C(NCCCCCCO)c1cccc2cc3ccccc3nc12 | > 10 µM (inactive) | 16.4 µM (inactive) | 32.4 µM (inactive) | 16.6 µM (inactive) | 16.7 µM (inactive) | 16.6 µM (inactive) | 16 µM (inactive) | 18.9 µM (inactive) | 18.6 µM (inactive) | 16.7 µM (inactive) | 24 µM (inactive) |  | 38.9 µM (inactive) | 16.5 µM (inactive) | 25.5 µM (inactive) | 25.8 µM (inactive) | 21 µM (inactive) | 21.7 µM (inactive) | 17.2 µM (inactive) | > 10 µM (inactive) |
| Brc1ccc2[nH]cc(-c3csc(-c4ccccn4)n3)c2c1 | 3.39 µM (inactive) | 5.85 µM (inactive) | 5.38 µM (inactive) | 8.69 µM (inactive) | 5.28 µM (inactive) | 11.6 µM (inactive) | 6.59 µM (inactive) | 14.4 µM (inactive) | > 51.1 µM (inactive) | 7.8 µM (inactive) | 14.4 µM (inactive) |  | 13.5 µM (inactive) | 8.18 µM (inactive) | 26.5 µM (inactive) | > 75.2 µM (inactive) | 22.9 µM (inactive) | 41.8 µM (inactive) | 6.03 µM (inactive) | 15.4 µM (inactive) |
| COc1c(C(=O)O)cccc1-c1cccc(C(=O)NCCN(CCNC(=O)c2cccc(-c3cccc(C(=O)O)c3OC)c2OC)CCNC(=O)c2cccc(-c3cccc(C(=O)O)c3OC)c2OC)c1OC | 31.8 µM (inactive) | 50.5 µM (inactive) | 24.3 µM (inactive) | 32.3 µM (inactive) | 36.7 µM (inactive) | 32.7 µM (inactive) | 25.4 µM (inactive) | 60.5 µM (inactive) | 28.6 µM (inactive) | 23.2 µM (inactive) | 29.4 µM (inactive) |  | 28.5 µM (inactive) | 25.8 µM (inactive) | 18.2 µM (inactive) | 28 µM (inactive) | 37.6 µM (inactive) | 11.4 µM (inactive) | 28.6 µM (inactive) | 10.7 µM (inactive) |
| COc1ccc2cc(CNCCCCCCNC(=O)Nc3cccc4ccccc34)ccc2c1 | > 100 µM (inactive) | > 100 µM (inactive) | > 100 µM (inactive) | > 100 µM (inactive) | > 100 µM (inactive) | > 100 µM (inactive) | > 100 µM (inactive) | > 100 µM (inactive) | > 100 µM (inactive) | > 100 µM (inactive) | > 100 µM (inactive) |  | > 100 µM (inactive) | > 100 µM (inactive) | > 100 µM (inactive) | > 100 µM (inactive) | > 100 µM (inactive) | > 100 µM (inactive) | > 100 µM (inactive) | > 100 µM (inactive) |
| CC(C)(C)c1ccc2c(c1)S(=O)(=O)Nc1ccccc1NS(=O)(=O)c1cc(C(C)(C)C)ccc1OCCOCCOCCO2 | 52.5 µM (inactive) | > 100 µM (inactive) | > 100 µM (inactive) | > 100 µM (inactive) | > 100 µM (inactive) | > 100 µM (inactive) | > 100 µM (inactive) | 20.9 µM (inactive) | > 100 µM (inactive) |  | > 100 µM (inactive) | 59.8 µM (inactive) | 88.5 µM (inactive) | 64.6 µM (inactive) | > 100 µM (inactive) |  |  |  | 45.5 µM (inactive) |  |
| CCOC(=O)/C(C(=S)NCc1ccccc1)=C(/N)N1CCCC1 | > 100 µM (inactive) | > 100 µM (inactive) | > 100 µM (inactive) | > 100 µM (inactive) | > 100 µM (inactive) | > 100 µM (inactive) | > 100 µM (inactive) | > 100 µM (inactive) | > 100 µM (inactive) | > 100 µM (inactive) | > 100 µM (inactive) |  | > 100 µM (inactive) | > 100 µM (inactive) | > 100 µM (inactive) | > 100 µM (inactive) | > 100 µM (inactive) | > 100 µM (inactive) | > 100 µM (inactive) | > 100 µM (inactive) |
| CC(C)C1CC2C(=O)N(c3ccccc3)C(=O)C2c2[nH]c3ccccc3c21 (stereo unspecified) | 32 µM (inactive) | 4.4 µM (inactive) | 4.85 µM (inactive) |  | 11.2 µM (inactive) | 16.2 µM (inactive) | 4.63 µM (inactive) | 2.32 µM (inactive) | > 100 µM (inactive) | 19.8 µM (inactive) |  | 22.4 µM (inactive) | 12 µM (inactive) | 24.6 µM (inactive) | 7.45 µM (inactive) |  |  |  | 21.3 µM (inactive) |  |
| Cc1ccnc2c1c(=O)c1ccccc1n2C | 31.8 µM (inactive) | 27.7 µM (inactive) | 50.7 µM (inactive) | 37.6 µM (inactive) | 23.9 µM (inactive) | 44.7 µM (inactive) | 13.1 µM (inactive) | 35.6 µM (inactive) | 54.5 µM (inactive) | 36.7 µM (inactive) | 30.5 µM (inactive) |  | 39.8 µM (inactive) | 16.2 µM (inactive) | 34.2 µM (inactive) | 25.3 µM (inactive) | 31.8 µM (inactive) | 42.9 µM (inactive) | 33.3 µM (inactive) | 44.9 µM (inactive) |
| O=[N+]([O-])c1ccc(C(Nc2ccccc2)c2ccc3cccnc3c2O)cc1 (stereo unspecified) | 24.1 µM (inactive) | 5.61 µM (inactive) | 12.6 µM (inactive) | 6.5 µM (inactive) | 0.423 µM (active) | 3.78 µM (inactive) | 3.24 µM (inactive) | 5.69 µM (inactive) | 8.2 µM (inactive) | 5.13 µM (inactive) | 7.94 µM (inactive) |  | 3.55 µM (inactive) | 12.9 µM (inactive) | 3.37 µM (inactive) | 19.6 µM (inactive) | 16.2 µM (inactive) | 14.4 µM (inactive) | 5.15 µM (inactive) | 0.474 µM (active) |
| NC(=O)c1ncn(C2OC(CO)C(O)C2O)c1NC=O (stereo unspecified) | > 100 µM (inactive) | > 100 µM (inactive) | > 100 µM (inactive) | > 100 µM (inactive) | > 100 µM (inactive) | > 100 µM (inactive) | > 100 µM (inactive) | > 100 µM (inactive) | > 100 µM (inactive) | > 100 µM (inactive) | > 100 µM (inactive) |  | > 100 µM (inactive) | > 100 µM (inactive) | > 100 µM (inactive) | > 100 µM (inactive) | > 100 µM (inactive) | > 100 µM (inactive) | > 100 µM (inactive) | > 100 µM (inactive) |
